According to ChEMBL document CHEMBL1240359, “Micafungin concentrations from brain tissue and pancreatic pseudocyst fluid” (Antimicrob Agents Chemother, 2010):
Activity calls are given as the source filed them. The rule behind the calls is not given here. Starred links: 1 amine or outer side, 2 acyl side, 3 side chain; linkers in the order of their positions; H or OH if unused. Positions of bridges follow the written chain, without caps; N, C: chain ends. Non-standard residues stand in square brackets, D forms with d. Residues, ends and D or L forms follow the SMILES beside them. *: point of attachment. hTyr(3S-OH,4S-OH,3'-OSO3H) = N[C@H](C(=O)O)[C@H](O)[C@@H](O)c1ccc(O)c(OS(=O)(=O)O)c1; Orn(4R-OH,5R-OH) = O=C([C@H](C[C@@H](O)[C@@H](O)N[*:3])N[*:1])[*:2]; Pro(3S-OH,4S-Me) = C[C@H]1CN[C@H](C(=O)O)[C@H]1O; X1 = CCCCCOc1ccc(-c2cc(-c3ccc(C(=O)*)cc3)no2)cc1; Gln(3R-OH) = NC(=O)C[C@@H](O)[C@H](N)C(=O)O; Hyp = O=C(O)[C@@H]1C[C@@H](O)CN1

Experiments:
[1] = Plasma concentration in patient with invasive candidiasis measured 23 hrs post last dose by HPLC; type: ADME, organism-based; details: human
[2] = Drug level in brain of patient with invasive candidiasis measured 23 hrs post last dose by HPLC; type: ADME, tissue-based; details: human, read-out: Drug uptake
[3] = Drug level in pancreatic pseudocyst fluid of patient with invasive candidiasis measured 24 hrs post last dose by HPLC; type: ADME; details: human, read-out: Drug uptake
[4] = Drug level in rabbit brain at 0.5 mg/kg/day, iv for 8 days measured 30 mins after last dose; type: ADME, organism-based, Oryctolagus cuniculus; parameters: route intravenous; details: read-out: Drug uptake
[5] = Drug level in rabbit brain at 1 mg/kg/day, iv for 8 days measured 30 mins after last dose; type: ADME, organism-based, Oryctolagus cuniculus; parameters: route intravenous; details: read-out: Drug uptake
[6] = Drug level in rabbit brain at 2 mg/kg/day, iv for 8 days measured 30 mins after last dose; type: ADME, organism-based, Oryctolagus cuniculus; parameters: route intravenous; details: read-out: Drug uptake
[7] = Drug level in rabbit lung at 0.5 to 2 mg/kg/day, iv for 8 days measured 30 mins after last dose; type: ADME, organism-based, Oryctolagus cuniculus; parameters: route intravenous; details: read-out: Drug uptake
[8] = Drug level in rabbit kidney at 0.5 to 2 mg/kg/day, iv for 8 days measured 30 mins after last dose; type: ADME, organism-based, Oryctolagus cuniculus; parameters: route intravenous; details: read-out: Drug uptake
Candida albicans = assay: Antimicrobial activity against Candida albicans infected in neutropenic rabbit model of disseminated candidiasis assessed as reduction in brain microbial burden at 0.25 to 2 mg/kg/day for 10 days; type: functional, organism-based

In the case of CCCCCOc1ccc(-c2cc(-c3ccc(C(=O)N[C@H]4C[C@@H](O)[C@@H](O)NC(=O)[C@@H]5[C@@H](O)[C@@H](C)CN5C(=O)[C@H]([C@H](O)CC(N)=O)NC(=O)[C@H]([C@H](O)[C@@H](O)c5ccc(O)c(OS(=O)(=O)O)c5)NC(=O)[C@@H]5C[C@@H](O)CN5C(=O)[C@H]([C@@H](C)O)NC4=O)cc3)no2)cc1 [MICAFUNGIN] (X1-[Orn(4R-OH,5R-OH)]T[Hyp][hTyr(3S-OH,4S-OH,3'-OSO3H)][Gln(3R-OH)][Pro(3S-OH,4S-Me)]; lactam 1-C), the concentration at 23 h [1] was 1580 ng/mL, the concentration at 23 h [2] was 280 ng/mL and the concentration at 24 h [3] was 380 ng/mL. It also gave a concentration at 0.5 h [4] of 80 ng/g, a concentration at 0.5 h [5] of 100 ng/g and a concentration at 0.5 h [6] of 180 ng/g. The concentration at 0.5 h [7] was 2260 ng/g, the concentration at 0.5 h [8] was 1400 ng/g and the inhibition (Candida albicans) was “Active”.
